{"source": "patent US11524956B2", "about": "“Alkyne substituted quinazoline compound and methods of use” (Newgen Therapeutics, Inc., priority 2011, dated 2022)", "key": {"NCI-H1975 cells": {"system": "NCI-H1975 cells", "test": "Anti-proliferation assay of NCI-H1975 cells (CCK-8)", "assay_type": "cell-based", "details": "Homo sapiens, NCI-H1975, 72 h, 3 days", "protocol": "The anti-proliferative assays were performed in triplicates. 3000 cell/well of N1975 cells were seeded in 96-well plate (medium: RPMI 1640, 5% FBS. 2 mM L-Glutamine). After 24 h, removal the medium in the plate was followed by the addition of compound of serial dilution in medium to the wells. After 3 days, the cells were treated with CCK-8 kit and incubated for additional 4 hours at 37° C. The plate was read at 450 nm. The log of the fractional growth inhibition was plotted against the log of the drug concentration, and the IC50 values were interpolated from the resulting linear regression curve fit. The IC50 value measured for Compound NT113 is <1000 nM."}, "[1]": {"test": "Rat pharmacokinetics studies (plasma)", "assay_type": "in vivo, Sprague Dawley rats", "protocol": "Sample preparation: The test article each was dissolved in 10% DMSO and 90% of (40% HP-β-CD in deionized water) to yield concentration at 2 mg/mL for intravenous and oral administration.\nMethod development and plasma samples analysis were performed by Analytical Sciences Division of the Testing Facility by means of LC-MS/MS. The analytical results were confirmed using quality control samples for intra-assay variation (within day variation). The accuracy of >66% of the quality control samples was between 80-120% of the known value(s).\nEach group consisted of 3 male Sprague Dawley rats (7-8 week old, 200-300 g body weight). The test articles were administered by a single bolus intravenous injection via the lateral tail vein or via oral gavage.\nBlood samples (approximately 300 μl) were collected via retro-orbital puncture after anaesthesia using mixed gas (CO2:O2=7:3) into tubes containing EDTA-K3 anticoagulant at appropriate time points. 10 time points (Groups 1-2): Pre-dose and post-dose at 5 min, 15 min, 30 min, 1 h, 2 h, 4 h, 6 h, 8 h and 24 h.\nAnalysis: The PK blood samples were centrifuged at approximately 8000 rpm for (3 minutes at 2-8° C. and the resulting plasma were separated and stored frozen at approximately −80° C. (following separation, the plasma may be initially placed on ice prior to being stored in the −80° C. freezer). All the plasma samples were labeled with detailed information such as study number, animal number, matrix, time points of collection and date of collection.\nStandard set of parameters including Area Under the Curve (AUC(0-t) and AUC(0-∞)), elimination half-live (T1/2), maximum plasma concentration (Cmax), time to reach maximum plasma concentration (Tmax), clearance (CL), and volume of distribution (Vz) will be calculated using noncompartmental analysis modules in FDA certified pharmacokinetic program WinNonlin Professional v5.2 (Pharsight, USA) by the Study Director. Furthermore, the Bioavailability will be estimated using the following formula:\n• AUC(0-t) Area under the curve from the time of dosing to the last measurable concentration • AUC(0-∞) Area under the curve from the time of dosing extrapolated to infinity, based on the last observed concentration • CL Total body clearance, CL=Dose/AUC • Cmax Maximum observed concentration, occurring at Tmax • F Bioavailability • MRT(0-∞) Mean residence time from the time of dosing to infinity • Tmax Time of maximum observed concentration • T1/2 Terminal half-life=In(2)/λz • Vz Volume of distribution based on the terminal phase"}, "[2]": {"details": "male, Sprague Dawley, rat plasma, IV 1 mg/Kg"}, "[3]": {"details": "male, Sprague Dawley, rat plasma, PO 5 mg/Kg"}}, "note": "pIC50: −log10 of the molar value. Where two headings read alike, the source gives them in different places."}
{"smiles": "CN(C)C/C=C/C(=O)Nc1cc2c(Nc3ccc(F)c(Cl)c3)ncnc2cc1C#C[C@@H]1[C@H]2COC[C@@H]12", "note": "[Example 4, (E)-N-(4-(3-chloro-4-fluorophenylamino)-7-(2-((1R,5S,6s)-3-oxa-bicyclo[3.1.0]hexan-6-yl)ethynyl)quinazolin-6-yl)-4-(dimethylamino)but-2-enamide]", "values": [{"measurement": "IC50", "setting": "NCI-H1975 cells; read-out: Cell Proliferation Inhibition IC50 (nM) NCI-H1975", "value": "100 to 1000", "unit": "nM"}, {"measurement": "pIC50", "setting": "NCI-H1975 cells; read-out: IC50 NCI-H1975 anti-proliferation", "value": "> 6.00"}, {"measurement": "bioavailability", "setting": "[1]; male, Sprague Dawley, plasma, rat, PO 5 mg/Kg, using AUC(0-t) instead of AUC(0-∞), read-out: calculated oral bioavailability", "value": 80.5, "unit": "%"}, {"measurement": "AUC(0-inf)", "setting": "[1]; [2]", "value": 158, "unit": "ng·h/mL"}, {"measurement": "AUC(0-t)", "setting": "[1]; [2]", "value": 135, "unit": "ng·h/mL"}, {"measurement": "Cmax", "setting": "[1]; [2]", "value": 44.4, "unit": "ng/mL"}, {"measurement": "clearance", "setting": "[1]; [2]", "value": 105, "unit": "mL/min/kg"}, {"measurement": "half-life", "setting": "[1]; [2]", "value": 7.48, "unit": "h"}, {"measurement": "Vd", "setting": "[1]; male, Sprague Dawley, rat plasma, IV 1 mg/Kg, read-out: Vz", "value": 20.5, "unit": "L/kg"}, {"measurement": "AUC(0-inf)", "setting": "[1]; [3]", "value": 555, "unit": "ng·h/mL"}, {"measurement": "AUC(0-t)", "setting": "[1]; [3]", "value": 542, "unit": "ng·h/mL"}, {"measurement": "Cmax", "setting": "[1]; [3]", "value": 39.3, "unit": "ng/mL"}, {"measurement": "half-life", "setting": "[1]; [3]", "value": 14.9, "unit": "h"}, {"measurement": "CL", "setting": "[1]; rat plasma, PO 5 mg/Kg", "value": 150, "unit": "mL/min/kg"}, {"measurement": "Vz", "setting": "[1]; rat plasma, PO 5 mg/Kg", "value": 58.1, "unit": "L/kg"}, {"measurement": "F", "setting": "[1]; rat, IV 1 mg/Kg", "value": 100, "unit": "%"}, {"measurement": "F", "setting": "[1]; rat, PO 5 mg/Kg, from AUC(0-∞)", "value": 70.1, "unit": "%"}, {"measurement": "oral bioavailability and brain penetration (qualitative)", "setting": "[1]; rat, oral administration", "value": "good oral bioavailability and brain penetration"}]}
